Data published in patent publication US10124004B2, “Pyrido[3,4-d]pyrimidine derivative and pharmaceutically acceptable salt thereof” (Teijin Pharma Limited, priority 2015, dated 2018).

Key:
CDK4/cyclin D3 = target: T1, CDK4/cyclin D3 (Homo sapiens, UniProt P11802); assay: Human CDK4/cyclin D3 inhibitory activity (QS S Assist CDK4/Cyclin D3_FP Kit, IMAP fluorescence polarization); format: biochemical; conditions: 50% inhibitory concentration against CDK4/cyclin D3, given as class symbol
T1 construct: purchased Carna Biosciences, Inc. QS S Assist CDK4/Cyclin D3_FP Kit
T1 sequence (P11802 whole entry): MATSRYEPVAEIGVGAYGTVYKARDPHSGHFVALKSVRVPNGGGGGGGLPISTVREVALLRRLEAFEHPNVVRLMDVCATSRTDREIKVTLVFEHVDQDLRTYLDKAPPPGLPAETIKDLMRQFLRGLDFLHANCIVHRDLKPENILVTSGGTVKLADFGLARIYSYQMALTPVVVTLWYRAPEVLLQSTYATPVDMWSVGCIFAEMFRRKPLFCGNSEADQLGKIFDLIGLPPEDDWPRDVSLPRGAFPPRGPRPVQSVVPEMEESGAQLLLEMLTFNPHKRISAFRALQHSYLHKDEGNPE
T1 sequence (P30281 whole entry partner): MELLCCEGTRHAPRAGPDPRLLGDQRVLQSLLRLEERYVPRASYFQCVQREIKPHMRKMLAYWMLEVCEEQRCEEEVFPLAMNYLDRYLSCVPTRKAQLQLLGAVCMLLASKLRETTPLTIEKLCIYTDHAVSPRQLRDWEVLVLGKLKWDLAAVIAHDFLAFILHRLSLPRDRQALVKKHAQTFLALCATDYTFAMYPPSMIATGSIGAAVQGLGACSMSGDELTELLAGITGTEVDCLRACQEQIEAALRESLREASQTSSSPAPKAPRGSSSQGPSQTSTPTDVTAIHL
In short: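 Percent inhibition, relative to DMSO with and without enzyme, was curve-fitted to give IC50 from polarization (ex 485, em 535 nm). The 45-min room-temperature reaction used 12.5-25 ng/well enzyme, kit ATP/substrate/metal mix, and HEPES pH 7.4 buffer with Tween20 and DTT, followed by 30-min IMAP binding in the dark.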

CDK2/cyclin A2 = target: T2, CDK2/cyclin A2 (Homo sapiens, UniProt P24941); assay: Human CDK2/cyclin A2 inhibitory activity (QS S Assist CDK2/Cyclin A2_FP Kit, IMAP fluorescence polarization); format: biochemical; conditions: 50% inhibitory concentration against CDK2/cyclin A2, given as class symbol
T2 construct: purchased Carna Biosciences, Inc. QS S Assist CDK2/Cyclin A2_FP Kit
In short: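 Kinase activity read as fluorescence polarization (485/535 nm) after phosphorylated fluorescent substrate binds IMAP reagent (30 min, RT, dark). Enzyme (2.5 ng/well) reacted 60 min at RT with ATP/substrate/metal in HEPES pH 7.4 buffer with Tween 20 and DTT; no-enzyme wells define 0% activity; IC50 by curve fit.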

Row | SMILES | IC50 (CDK4/cyclin D3) | IC50 (CDK2/cyclin A2)
1 | CC(C)Nc1nc(C2CCOC2)cc2cnc(Nc3ccc(N4CCNCC4)nn3)nc12 (centres unmarked) [Compound 877] | < 10 nM | ≥ 100 nM
2 | c1cc(N2CCNCC2)nnc1Nc1ncc2cc(C3CCOC3)nc(N[C@H]3CCCOC3)c2n1 (some centres unmarked) [Compound 878] | < 10 nM | ≥ 100 nM
3 | CC(C)Nc1nc(C2CCOC2)cc2cnc(Nc3ccc(CN4CCNCC4)cn3)nc12 (centres unmarked) [Compound 881] | < 10 nM | ≥ 100 nM
4 | c1cc(Nc2ncc3cc(C4CCOC4)nc(N[C@H]4CCCOC4)c3n2)ncc1CN1CCNCC1 (some centres unmarked) [Compound 882] | < 10 nM | ≥ 100 nM
5 | CC(C)Nc1nc(C2CCOC2)cc2cnc(Nc3ccc4c(n3)CCNC4)nc12 (centres unmarked) [Compound 885] | < 10 nM | ≥ 100 nM
6 | CC(C)Nc1nc(C2(C)COC2)cc2cnc(Nc3ccc4c(n3)CCNC4)nc12 [Compound 887] | < 10 nM | ≥ 100 nM
7 | CC1(c2cc3cnc(Nc4ccc5c(n4)CCNC5)nc3c(N[C@H]3CCCOC3)n2)COC1 [Compound 888] | < 10 nM | ≥ 100 nM
8 | CC(C)Nc1nc(C2CCOC2)cc2cnc(Nc3ccc(N4CCN(CC(=O)O)CC4C(F)(F)F)cn3)nc12 (centres unmarked) [Compound 889] | 10 to 100 nM | ≥ 100 nM
9 | CC(C)Nc1nc(C2(C)COC2)cc2cnc(Nc3ccc(N4CCN(CC(=O)O)CC4C(F)(F)F)cn3)nc12 (centres unmarked) [Compound 890] | 10 to 100 nM | ≥ 100 nM
10 | CO[C@H](C)c1cc2cnc(Nc3ccc(N4CCN(CC(=O)O)CC4C(F)(F)F)cn3)nc2c(NC(C)C)n1 (some centres unmarked) [Compound 891] | 10 to 100 nM | ≥ 100 nM
11 | CC(C)Nc1nc([C@@H](C)O)cc2cnc(Nc3ccc(N4CCN(CC(=O)O)CC4C(F)(F)F)cn3)nc12 (some centres unmarked) [Compound 892] | 10 to 100 nM | ≥ 100 nM
12 | CO[C@H](C)c1cc2cnc(Nc3ccc(N4CCN(CC(=O)O)CC4=O)cn3)nc2c(NC(C)C)n1 [Compound 894] | 10 to 100 nM | ≥ 100 nM
13 | CC(C)Nc1nc([C@@H](C)O)cc2cnc(Nc3ccc(N4CCN(C(C)C(=O)O)CC4=O)cn3)nc12 (some centres unmarked) [Compound 895] | < 10 nM | ≥ 100 nM
14 | CC(C)Nc1nc([C@@H](C)O)cc2cnc(Nc3ccc(N4CCNC(C(F)(F)F)C4)nn3)nc12 (some centres unmarked) [Compound 896] | < 10 nM | ≥ 100 nM
15 | CO[C@H](C)c1cc2cnc(Nc3ccc(N4CCN(C(C)C(=O)O)CC4=O)cn3)nc2c(NC(C)C)n1 (some centres unmarked) [Compound 897] | 10 to 100 nM | ≥ 100 nM
16 | CC(C)Nc1nc([C@@H](C)O)cc2cnc(Nc3ccc(N4CCn5ccnc5C4)nn3)nc12 [Compound 898] | < 10 nM | ≥ 100 nM
17 | CC(C)Nc1nc([C@@H](C)O)cc2cnc(Nc3ccc(N4CCN(CC#N)CC4=O)cn3)nc12 [Compound 899] | < 10 nM | ≥ 100 nM
18 | CC(C)Nc1nc([C@@H](C)O)cc2cnc(Nc3ccc(N4CCN(CC(N)=O)CC4=O)cn3)nc12 [Compound 900] | < 10 nM | ≥ 100 nM
19 | CC(C)Nc1nc([C@@H](C)O)cc2cnc(Nc3ccc(N4CCN(CC#N)CC4)nn3)nc12 [Compound 901] | < 10 nM | ≥ 100 nM
20 | C[C@@H](O)c1cc2cnc(Nc3ccc(N4CCNCC4=O)cn3)nc2c(NC2(C)CCCOC2)n1 (some centres unmarked) [Compound 903] | < 10 nM | 10 to 100 nM

Row | SMILES | IC50 (CDK4/cyclin D3) | IC50 (CDK2/cyclin A2)
21 | CO[C@H](C)c1cc2cnc(Nc3ccc(N4CCN(CC#N)CC4)nn3)nc2c(NC(C)C)n1 [Compound 906] | 10 to 100 nM | ≥ 100 nM
22 | CO[C@H](C)c1cc2cnc(Nc3ccc(N4CCN(CC(N)=O)CC4)nn3)nc2c(NC(C)C)n1 [Compound 908] | < 10 nM | ≥ 100 nM
23 | CC(=O)c1cc2cnc(Nc3ccc(CN4CCNCC4)cn3)nc2c(NCC(C)C)n1 [Compound 912] | < 10 nM | ≥ 100 nM
24 | CO[C@H](C)c1cc2cnc(Nc3ccc(CN4CCN(CCO)CC4)cn3)nc2c(NC(C)(C)CO)n1 [Compound 913] | < 10 nM | ≥ 100 nM
25 | CO[C@H](C)c1cc2cnc(Nc3ccc(CN4CCN(CCO)CC4)cn3)nc2c(N[C@H](C)CO)n1 [Compound 914] | < 10 nM | ≥ 100 nM
26 | COC[C@@H](C)Nc1nc([C@@H](C)OC)cc2cnc(Nc3ccc(CN4CCN(CCO)CC4)cn3)nc12 [Compound 916] | < 10 nM | ≥ 100 nM
27 | CO[C@H](C)c1cc2cnc(Nc3ccc(CN4CCN(CCO)CC4)cn3)nc2c(N[C@H]2CC[C@H](O)CC2)n1 [Compound 917] | < 10 nM | ≥ 100 nM
28 | CO[C@H](C)c1cc2cnc(Nc3ccc(CN4CCN(CCO)CC4)cn3)nc2c(NCC2CCOCC2)n1 [Compound 918] | < 10 nM | ≥ 100 nM
29 | CCNc1nc([C@@H](C)OC)cc2cnc(Nc3ccc(N4CCNCC4)cn3)nc12 [Compound 919] | < 10 nM | ≥ 100 nM
30 | CCCNc1nc([C@@H](C)O)cc2cnc(Nc3ccc(N4CCNCC4)cn3)nc12 [Compound 921] | < 10 nM | ≥ 100 nM
31 | CCCCNc1nc([C@@H](C)O)cc2cnc(Nc3ccc(N4CCNCC4)cn3)nc12 [Compound 922] | < 10 nM | ≥ 100 nM
32 | CC(C)Nc1nc([C@@H](C)O)cc2cnc(Nc3ccc(N4CC(C)(C)NCC4=O)cn3)nc12 [Compound 923] | < 10 nM | ≥ 100 nM
33 | Cc1nc(Nc2ncc3cc([C@@H](C)O)nc(NC(C)C)c3n2)ccc1N1CCNCC1 [Compound 924] | < 10 nM | ≥ 100 nM
34 | CO[C@H](C)c1cc2cnc(Nc3ccc(N4CCNCC4)c(C)n3)nc2c(NC(C)C)n1 [Compound 925] | < 10 nM | ≥ 100 nM
35 | CO[C@H](C)c1cc2cnc(Nc3ccc(OC4CCNCC4)cn3)nc2c(NCC2CCOCC2)n1 [Compound 927] | < 10 nM | ≥ 100 nM
36 | CC(C)Nc1nc([C@@H](C)O)cc2cnc(Nc3ccc4c(n3)CCN(C(=O)[C@@H](N)C(C)C)C4)nc12 [Compound 931] | < 10 nM | ≥ 100 nM
37 | CC(C)Nc1nc([C@@H](C)O)cc2cnc(Nc3ccc4c(n3)CCN(C(=O)C3CCNCC3)C4)nc12 [Compound 932] | < 10 nM | ≥ 100 nM
38 | CNC(=O)N1CCc2nc(Nc3ncc4cc([C@@H](C)O)nc(NC(C)C)c4n3)ccc2C1 [Compound 933] | < 10 nM | ≥ 100 nM
39 | CC(C)Nc1nc([C@@H](C)O)cc2cnc(Nc3ccc4c(n3)CCN(S(=O)(=O)N(C)C)C4)nc12 [Compound 935] | 10 to 100 nM | ≥ 100 nM
40 | CC(C)Nc1nc([C@@H](C)O)cc2cnc(Nc3ccc(N4CCN(CC(N)=O)CC4)nn3)nc12 [Compound 937] | < 10 nM | ≥ 100 nM

Continued, values first:

Row | IC50 (CDK4/cyclin D3) | IC50 (CDK2/cyclin A2) | SMILES
41 | < 10 nM | ≥ 100 nM | CO[C@H](C)c1cc2cnc(Nc3ccc(OC4CCNCC4)cn3)nc2c(N[C@H]2CCCOC2)n1 [Compound 874]
42 | < 10 nM | ≥ 100 nM | CC1(c2cc3cnc(Nc4ccc(N5CCNCC5)nn4)nc3c(N[C@H]3CCCOC3)n2)COC1 [Compound 880]
43 | < 10 nM | ≥ 100 nM | CC1(c2cc3cnc(Nc4ccc(CN5CCNCC5)cn4)nc3c(N[C@H]3CCCOC3)n2)COC1 [Compound 884]
44 | < 10 nM | ≥ 100 nM | c1cc2c(nc1Nc1ncc3cc(C4CCOC4)nc(N[C@H]4CCCOC4)c3n1)CCNC2 (some centres unmarked) [Compound 886]
45 | 10 to 100 nM | ≥ 100 nM | CO[C@H](C)c1cc2cnc(Nc3ccc(N4CCCC(C(=O)O)C4)cn3)nc2c(NC(C)C)n1 (some centres unmarked) [Compound 893]
46 | < 10 nM | ≥ 100 nM | CC(C)Nc1nc([C@@H](C)O)cc2cnc(Nc3ccc(N4CCN(C(C)C#N)CC4)nn3)nc12 (some centres unmarked) [Compound 902]
47 | < 10 nM | ≥ 100 nM | CC(C)Nc1nc([C@@H](C)O)cc2cnc(Nc3ccc4c(n3)CCN(C(=O)CN(C)C)C4)nc12 [Compound 905]
48 | < 10 nM | ≥ 100 nM | CO[C@H](C)c1cc2cnc(Nc3ccc(N4CCN(C(C)C#N)CC4)nn3)nc2c(NC(C)C)n1 (some centres unmarked) [Compound 907]
49 | < 10 nM | ≥ 100 nM | CC(=O)c1cc2cnc(Nc3ccc(N4CCNCC4)nn3)nc2c(NC(C)(C)C)n1 [Compound 909]
50 | 10 to 100 nM | ≥ 100 nM | CCCNc1nc(C(C)=O)cc2cnc(Nc3ccc(CN4CCNCC4)cn3)nc12 [Compound 910]
51 | < 10 nM | ≥ 100 nM | CCCCNc1nc(C(C)=O)cc2cnc(Nc3ccc(CN4CCNCC4)cn3)nc12 [Compound 911]
52 | < 10 nM | ≥ 100 nM | CO[C@H](C)c1cc2cnc(Nc3ccc(CN4CCN(CCO)CC4)cn3)nc2c(N[C@@H](C)CO)n1 [Compound 915]
53 | < 10 nM | ≥ 100 nM | CCCNc1nc([C@@H](C)OC)cc2cnc(Nc3ccc(N4CCNCC4)cn3)nc12 [Compound 920]
54 | < 10 nM | ≥ 100 nM | CC(C)Nc1nc([C@@H](C)O)cc2cnc(Nc3ccc(N4CCC(O)CC4=O)cn3)nc12 (some centres unmarked) [Compound 926]
55 | < 10 nM | ≥ 100 nM | CO[C@H](C)c1cc2cnc(Nc3ccc(CN4CCNCC4)cn3)nc2c(NC(C)C2CCOCC2)n1 (some centres unmarked) [Compound 928]
56 | < 10 nM | ≥ 100 nM | CNCCN1CCc2nc(Nc3ncc4cc([C@@H](C)O)nc(NC(C)C)c4n3)ccc2C1 [Compound 930]
57 | < 10 nM | ≥ 100 nM | CC(C)Nc1nc([C@@H](C)O)cc2cnc(Nc3ccc4c(n3)CCN(S(C)(=O)=O)C4)nc12 [Compound 934]
58 | < 10 nM | ≥ 100 nM | CC(C)Nc1nc([C@@H](C)O)cc2cnc(Nc3ccc(N4CCN(C(C)C#N)CC4=O)cn3)nc12 (some centres unmarked) [Compound 936]
